Assay results published in patent US20220339257A1, “METHODS TO INCREASE THE SENSITIVITY AND REVERSING THE RESISTANCE TO DRUGS” (Biomarker Strategies, LLC, priority 2019, published 2022).

B1: interferon-alpha-1 (protein, UniProt P01562 24-189, looked up)
Interferon alpha-1/13: CDLPETHSLDNRRTLMLLAQMSRISPSSCLMDRHDFGFPQEEFDGNQFQKAPAISVLHELIQQIFNLFTTKDSSAAWDEDLLDKFCTELYQQLNDLEACVMQEERVGETPLMNADSILAVKKYFRRITLYLTEKKYSPCAWEVVRAEIMRSLSLSTNLQERLRRKE
notes: enhancer molecule, cytokine purchased from Sigma

Tests used:
Format in all cases: cell-based
H1581 (EGFR WT) = experiment: MTT cell survival assay; settings: EM2 (10, 30, 50 ng/ml) combined with Erlotinib 7 μM; Erl-resistant EGFR WT cells
Method: (§1) Cells (10^4 cells/well) were grown in 96-well plates and exposed for 72 hours to different doses of erlotinib, alone or in combination with EM2. The percentage of cell survival was determined using the 3-(4, 5-dimethylthiazol-2-yl)-2, 5-diphenyltetrazolium bromide (MTT). Single drug alone and vehicle were kept as controls.

[1] = system: H1975 (EGFR-double mutant line); experiment: MTT cell survival assay; settings: EM2 10 ng/ml combined with erlotinib; Erl-resistant H1975; 72 hours
Method: as §1

[2] = system: HCC827 (EGFR deletion mutant line); experiment: MTT cell survival assay; settings: 10 ng/ml of EM2 combined with erlotinib, 72 hours
Method: as §1

HTB-38 cells = experiment: Western blot of protein biomarkers
Method: (§2) MTA and EM effects on protein biomarker expression were measured by western blotting. For the assay cell lines (Ca9-22, PE/CA-PJ15, HTB-38, HPAF-II, CAL27, BICR-16, A-253, Calu-6, PC-9, H1838, RPMI-7951 and A7) were cultured and treated with doses of MTAs alone, EMs alone and in combination and then lysed for protein analysis. This method can readily be conducted under adherent or suspension conditions, manually or on automated instruments, such as SnapPath. A total of 0.3×10^6 cells per well were seeded in 6 well plates with 10% FBS-containing media and incubated for 24 hours. Cells were then treated with MTA and/or EM concentrations for 24 hours. For total protein extraction, briefly, each sample media was collected, and wells were washed with HMS, and the wash was combined with its respective media collection. Cells were then detached using Accutase solution and again collected in its respective sample media and another HMS well wash and collection was performed. All cell solutions were centrifuged, washed with ice-cold PBS, and centrifuged again. Cell pellets were lysed in 250 μL of ice-cold 1× lysis buffer with protease and phosphatase inhibitor cocktails and incubated for 10 minutes on ice. Lysates were clarified with a centrifugation (14,000 rpm) for 10 minutes at 4° C. Cell lysates were quantified using Bio-Rad DC Protein Assay (Bio-Rad Cat. #5000116).
(§3) For all western blots, an equal amount of protein (3-5 μg) was loaded into SDS-polyacrylamide gels (Mini-Protean TGX Precast Gel; Bio-Rad, e.g. 7.5%, Cat. #4561024; 10%, Cat. #4561035; 12%, Cat. #4561045; or 4-15%, Cat. #4561085). Proteins were separated at 215V for at least 30 minutes in 1× Tris/Glycine/SDS buffer (Bio-Rad Cat. #1610772) and transferred to PVDF membranes using a Trans-Blot Turbo (Bio-Rad Cat. #1704155) for 7 minutes in transfer buffer (Trans-Blot Turbo Transfer Kit, Bio-Rad Cat. #1704273). Blots were blocked at room temperature for 1 hour with 5% non-fat dry milk in tris-buffered saline with Tween 20 (TBST; 15 mM Tris-HCl, pH 7.5, 200mMNaCl and 0.1% Tween 20). Membranes were incubated with primary antibodies at 4° C. overnight and at room temperature for 1 hour the next day; all primary antibodies were diluted following manufacturer's specifications in TBST with either 5% BSA or 5% non-fat dry milk. Membranes were washed in TBST for 5 minutes, three times, and incubated with HRP-conjugated secondary antibodies diluted 1:5000 in TBST with 5% non-fat dry milk at room temperature for 1 hour (anti-rabbit IgG, Bio-Rad Cat. #1706515; or anti-mouse IgG, Bio-Rad Cat. #1706516). Membranes were then washed in TBST for 10 minutes, three times, and target proteins were identified using Clarity Western ECL Substrate (Bio-Rad Cat. #1705061) on autoradiography film (GenHunter Cat. #B581, Nashville, Tenn., USA). Other assay types, such as Luminex multiplexed immunoassays, ICC, IHC, flow cytometry, etc. can be used readily.

PC-9 cells = experiment: Western blot of protein biomarkers; settings: trametinib (100 nM)+TNF-α (10 ng/mL), 24 hours
Method: as §2, §3

BICR-16 cells = experiment: Western blot of protein biomarkers; settings: IFN-γ (100 ng/mL)+TNF-α (10 ng/mL), 24 hours
Method: as §2, §3

[3] = system: panel of cell lines that included NSCLC, HNSCC, melanoma, and CRC; experiment: WST8 in vitro sensitivity to MTAs with and without EM
Method: Day 1: cells were harvested cells from flask (4 mL accutase for T175 for 3-5 minutes), and spin down for 5 mins at 1200 rpm. The supernatant was poured off, and the pellet gently resuspended in 1 mL media. Countess counts were performed, and the cells were diluted in media (10% FBS). With multi-channel pipette, 2500 cells were seeded in 100 uL of media (10% FBS) in each well of 96 well plate. The cells were let to adhere and grow for 24 hours. Day 2: serial drug dilutions of MTAs+/−EMs at 5× of concentrations (as done above) were performed in media (10% FBS). 20 uL of media form each well of the 96 well plate (80 uL media left in wells) was removed, and 20 uL of appropriate 5× drug dilutions was added to each respective well (for a 1× conc). The cells were incubated with drug for 72 hours in 37C incubator. Day 5: 10 uL of WST-8 reagent was added to each well of the 96 well plate and mixed gently. the plates were incubated up to 4 hours at 37C in dark, and absorbance readings were taken at […] and 600 nm wavelengths at 1, 2, 3 and 4h, until control absorbance levels were 1.5-2.0).
We used a panel of cell lines that included NSCLC, HNSCC, melanoma, and CRC. These cell lines are a good model system harboring similar (epi)genetic changes found in patients' tumors. We used the WST8 assay to determine the in vitro sensitivity to various MTAs with and without EM1.

PE/CA-PJ15 cells = experiment: Western blot of protein biomarkers; settings: osimertinib (100 nM)+IFN-α (200 ng/mL)
Method: as §2, §3

Ca9-22 cells = experiment: Western blot of protein biomarkers; settings: compared to either alone
Method: as §2, §3

[4] = compared to either therapy alone
[5] = osimertinib (1000 nM)+IFN-α (200 ng/mL)

Molecule	cell survival (MTT), sensitization to erlotinib (H1581 (EGFR WT))	cell survival (MTT), response to erlotinib [1]	cell survival (MTT), sensitivity to erlotinib [2]	LC3II expression (HTB-38 cells; IFN-γ (100 ng/mL)+TNF-α)	p62 expression (HTB-38 cells; IFN-γ (100 ng/mL)+TNF-α)	PARP cleavage (HTB-38 cells; IFN-γ (100 ng/mL)+TNF-α (10 ng/mL), 24 hours, compared to MTA and EM alone)	Ki67 degradation and/or fragmentation pattern (HTB-38 cells; IFN-γ (100 ng/mL)+TNF-α (10 ng/mL), 24 hours, compared to either therapy alone)	PARP cleavage (PC-9 cells; compared to MTA and EM alone)	p-AKT (Ser473) expression (PC-9 cells; compared to either MTA or EM alone)	Ki67 degradation and/or fragmentation pattern (PC-9 cells; [4])	PARP cleavage (BICR-16 cells; compared to MTA and EM alone)	LC3II over LC3I expression (BICR-16 cells; compared to either alone)	Ki67 degradation and/or fragmentation pattern (BICR-16 cells; [4])	response enhancement (in vitro sensitivity to various MTAs with and without EM, WST8) [3]	p62 expression (PE/CA-PJ15 cells)	LC3II over LC3I expression (PE/CA-PJ15 cells; 24 hours, compared to either alone)	LC3II over LC3I expression (Ca9-22 cells; GSK-458 (10 nM)+IFN-α (200 ng/mL), 24 hours)	LC3II expression (Ca9-22 cells; [5])	p62 expression (Ca9-22 cells; [5])
tumor necrosis factor-alpha [EM2]	sensitized to Erl	enhanced response	increased sensitivity to Erl	increased expression	increased expression	very strong PARP cleavage	marked increase in the distinct degradation and/or fragmentation pattern of Ki67	very strong PARP cleavage	strong reduction in p-AKT (Ser473) expression	marked increase in the distinct degradation and/or fragmentation pattern of Ki67	very strong PARP cleavage	marked increase in LC3II over LC3I expression	marked increase in the distinct degradation and/or fragmentation pattern of Ki67	no, minimal and strong response enhancement					
B1															increased expression	marked increase in LC3II over LC3I expression	marked increase in LC3II over LC3I expression	LC3II upregulation	reduction in p62
